# Experimental data reported in PMC9760430, “A stapled chromogranin A-derived peptide homes in on tumors that express αvβ6 or αvβ8 integrins” (International Journal of Biological Sciences, 2023).
# Tested on: human umbilical vein endothelial cells (HUVECs) (αvβ6- and αvβ8-)
# Assay: binding of peptide-IRDye conjugates to cultured HUVECs
# Format: cell-based
# Conditions: 0.32-200 nM, 1 h, 37 °C; bound NIR fluorescence
# Experimental: To assess the binding of peptide-IRDye conjugates to cells various amounts of conjugates (range 0.32-200 nM) were added to cultured cells and left to incubate for 1 h at 37 °C. After three washings, the cells were fixed and analyzed by scanning the plate with the Odyssey CLx.
# A control conjugate with a cysteine in place of the peptide was also prepared in parallel. The identity of the purified products, called 5a-IRDye, 2a-IRDye, and Cys-IRDye, was confirmed by mass spectrometry analysis (Table S1). In addition, the purity and identity of 5a-IRDye was monitored by liquid chromatography–mass spectrometry (LC-MS). […]
# that the product consist of a single peak at 230 and 735 nm with the expected molecular weight (purity >95%) (Figure S3A).
# The simplified molecular-input line-entry system (SMILES) of 5a-, 2a-, Cys- and 5a-Scr- […]
# The concentration of each conjugate was quantified by spectrophotometric analysis at 774 nm (molar absorption coefficient, 240,000 M-1, cm-1) (Figure S3B). […]
# The binding of peptide-IRDye conjugates to BxPC-3, 5M7101, and HUVECs cells was analyzed as follows. […]
# chloride and 1% BSA (binding buffer) for 5 min. […] Binding of conjugates to cells was quantified by scanning the plate (filled with PBS, 100 µl/well) with the Odyssey CLx (LI-COR) using the above settings, except that the scan focus offset and scan intensity were set to 4 and 8.5, respectively. […]
smiles,measurement,value
CC1(C)C(/C=C/C2=C(Oc3ccc(S(=O)(=O)O)cc3)C(=C\C=C3/N(CCCCCC(=O)NCCN4C(=O)CC(SC[C@H](N)C(=O)O)C4=O)c4ccc(S(=O)(=O)O)cc4C3(C)C)/CCC2)=[N+](CCCCS(=O)(=O)O)c2ccc(S(=O)(=O)[O-])cc21 (stereo partly shown) [Cys-IRDye],binding of conjugate to HUVECs,little or no binding
